From patent US6737383B1, “Herbicidal oxadiazolidines” (priority 1999, dated 2004)

Legend:
duck salad = experiment: Test B flood test duck salad; type: in vivo, Heteranthera limosa
How it was run: (§1)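 Read-out is a visual response score from 0 (no effect) to 10 (complete control), assigned by comparison with untreated controls. Treatment was applied at the 2-leaf stage, and plants stayed in the greenhouse for twelve to sixteen days before scoring.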

blackgrass = experiment: Test B pre/postemergence blackgrass; type: in vivo, Alopecurus myosuroides
How it was run: (§2)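 Test chemicals in a non-phytotoxic solvent mixture with surfactant were sprayed preemergence onto planted seeds and postemergence onto plants 2 to 18 cm tall (1- to 4-leaf stage). After twelve to sixteen days in a greenhouse, injury was visually rated against untreated controls from 0 (no effect) to 10 (complete control).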

cocklebur = experiment: Test B pre/postemergence cocklebur; type: in vivo, Xanthium strumarium
How it was run: as §2

purple nutsedge = experiment: Test B pre/postemergence purple nutsedge; type: in vivo, Cyperus rotundus
How it was run: as §2

sugar beet = experiment: Test B pre/postemergence sugar beet; type: in vivo, Beta vulgaris
How it was run: as §2

pigweed = experiment: Test B pre/postemergence pigweed; type: in vivo, Amaranthus retroflexus
How it was run: as §2

bamyardgrass = experiment: Test B flood test barnyardgrass; type: in vivo, Echinochloa crus-galli
How it was run: as §1

rape = experiment: Test B pre/postemergence rape; type: in vivo, Brassica napus
How it was run: as §2

wheat = experiment: Test B pre/postemergence wheat; type: in vivo, Triticum aestivum
How it was run: as §2

morningglory = experiment: Test B pre/postemergence morningglory; type: in vivo, Ipomoea hederacea
How it was run: as §2

smallflower flatsedge = experiment: Test B flood test smallflower flatsedge; type: in vivo, Cyperus difformis
How it was run: as §1

giant foxtail = experiment: Test B pre/postemergence giant foxtail; type: in vivo, Setaria faberii
How it was run: as §2

surinam grass = experiment: Test B pre/postemergence surinam grass; type: in vivo, Brachiaria decumbens
How it was run: as §2

velvetleaf = experiment: Test B pre/postemergence velvetleaf; type: in vivo, Abutilon theophrasti
How it was run: as §2

corn = experiment: Test B pre/postemergence corn; type: in vivo, Zea mays
How it was run: as §2

wild oat = experiment: Test B pre/postemergence wild oat; type: in vivo, Avena fatua
How it was run: as §2

soybean = experiment: Test B pre/postemergence soybean; type: in vivo, Glycine max
How it was run: as §2

rice = experiment: Test B flood test rice; type: in vivo, Oryza sativa
How it was run: as §1

crabgrass = experiment: Test B pre/postemergence crabgrass; type: in vivo, Digitaria sanguinalis
How it was run: as §2

[1] = Postemergence block (flood test species), Rate 250 g/ha, scale 0 to 10
[2] = Postemergence section (flood test species), Rate 500 g/ha, scale of 0 to 10 where 0 is no effect and 10 is complete control
[3] = Rate 62 g/ha, Postemergence (flood test species), scale of 0 to 10 where 0 is no effect and 10 is complete control
[4] = Rate 125 g/ha, Postemergence section (flood test species), scale 0 to 10, 0 is no effect, 10 is complete control
[5] = Postemergence, Rate 250 g/ha, scale 0 to 10
[6] = Postemergence, Rate 500 g/ha, scale of 0 to 10 where 0 is no effect and 10 is complete control
[7] = Preemergence, Rate 62 g/ha, scale 0 to 10 (0 no effect, 10 complete control)
[8] = Preemergence, Rate 125 g/ha, scale of 0 to 10 where 0 is no effect and 10 is complete control
[9] = Preemergence, Rate 250 g/ha, scale 0 to 10, 0 is no effect, 10 is complete control
[10] = Preemergence, Rate 500 g/ha, scale 0 to 10, 0 is no effect, 10 is complete control
[11] = Rate 62 g/ha, Postemergence, scale of 0 to 10 where 0 is no effect and 10 is complete control
[12] = Rate 125 g/ha, Postemergence, scale 0 to 10, 0 is no effect, 10 is complete control

CC(C)N(C(=O)n1oc(=O)n(C2CCCCCC2)c1=O)C1=CCCCC1 [Compound 428]
3: Ducksalad plant response rating (duck salad; [1]) | Blackgrass plant response rating (blackgrass; [5]) | Redroot pigweed plant response rating (pigweed; [6]) | Morningglory plant response rating (morningglory; [6]) | B. signalgrass plant response rating (surinam grass; [10]) | Soybean plant response rating (soybean; [6]) | Crabgrass plant response rating (crabgrass; [6])
4: Blackgrass plant response rating (blackgrass; [6])
10: Giant foxtail plant response rating (giant foxtail; [10]) | Crabgrass plant response rating (crabgrass; [10])
9: S. Flatsedge plant response rating (smallflower flatsedge; [2]) | Crabgrass plant response rating (crabgrass; [9])
0: Ducksalad plant response rating (duck salad; [3]) | Ducksalad plant response rating (duck salad; [4]) | Plant response rating, Blackgrass (blackgrass; [7]) | Plant response rating, Blackgrass (blackgrass; [8]) | Blackgrass plant response rating (blackgrass; [9]) | Blackgrass plant response rating (blackgrass; [11]) | Blackgrass plant response rating (blackgrass; [12]) | Cocklebur plant response rating (cocklebur; [5]) | Plant response rating, Cocklebur (cocklebur; [7]) | Plant response rating, Cocklebur (cocklebur; [8]) | Cocklebur plant response rating (cocklebur; [9]) | Cocklebur plant response rating (cocklebur; [10]) | Cocklebur plant response rating (cocklebur; [11]) | Cocklebur plant response rating (cocklebur; [12]) | Nutsedge plant response rating (purple nutsedge; [5]) | Nutsedge plant response rating (purple nutsedge; [6]) | Plant response rating, Nutsedge (purple nutsedge; [7]) | Plant response rating, Nutsedge (purple nutsedge; [8]) | Nutsedge plant response rating (purple nutsedge; [9]) | Nutsedge plant response rating (purple nutsedge; [10]) | Nutsedge plant response rating (purple nutsedge; [12]) | Sugarbeets plant response rating (sugar beet; [5]) | Sugarbeets plant response rating (sugar beet; [6]) | Plant response rating, Sugarbeets (sugar beet; [7]) | Plant response rating, Sugarbeets (sugar beet; [8]) | Sugarbeets plant response rating (sugar beet; [9]) | Sugarbeets plant response rating (sugar beet; [10]) | Sugarbeets plant response rating (sugar beet; [12]) | Redroot pigweed plant response rating (pigweed; [5]) | Plant response rating, Redroot pigweed (pigweed; [7]) | Plant response rating, Redroot pigweed (pigweed; [8]) | Redroot pigweed plant response rating (pigweed; [9]) | Redroot pigweed plant response rating (pigweed; [10]) | Redroot pigweed plant response rating (pigweed; [12]) | Barnyardgrass plant response rating (bamyardgrass; [3]) | Barnyardgrass plant response rating (bamyardgrass; [4]) | Rape plant response rating (rape; [5]) | Rape plant response rating (rape; [6]) | Plant response rating, Rape (rape; [7]) | Plant response rating, Rape (rape; [8]) | Rape plant response rating (rape; [9]) | Rape plant response rating (rape; [10]) | Rape plant response rating (rape; [12]) | Wheat plant response rating (wheat; [5]) | Wheat plant response rating (wheat; [6]) | Plant response rating, Wheat (wheat; [7]) | Plant response rating, Wheat (wheat; [8]) | Wheat plant response rating (wheat; [9]) | Wheat plant response rating (wheat; [10]) | Wheat plant response rating (wheat; [12]) | Plant response rating, Morningglory (morningglory; [7]) | Plant response rating, Morningglory (morningglory; [8]) | Morningglory plant response rating (morningglory; [9]) | Morningglory plant response rating (morningglory; [10]) | S. Flatsedge plant response rating (smallflower flatsedge; [1]) | S. Flatsedge plant response rating (smallflower flatsedge; [4]) | Giant foxtail plant response rating (giant foxtail; [5]) | Giant foxtail plant response rating (giant foxtail; [6]) | Plant response rating, Giant foxtail (giant foxtail; [7]) | Giant foxtail plant response rating (giant foxtail; [11]) | Giant foxtail plant response rating (giant foxtail; [12]) | B. signalgrass plant response rating (surinam grass; Postemergence, Rate 250 g/ha, scale 0 to 10, 0 no effect, 10 complete control) | B. signalgrass plant response rating (surinam grass; [6]) | Plant response rating, B. signalgrass (surinam grass; [7]) | Plant response rating, B. signalgrass (surinam grass; [8]) | B. signalgrass plant response rating (surinam grass; [9]) | B. signalgrass plant response rating (surinam grass; [11]) | B. signalgrass plant response rating (surinam grass; [12]) | Plant response rating, Velvetleaf (velvetleaf; [7]) | Plant response rating, Velvetleaf (velvetleaf; [8]) | Velvetleaf plant response rating (velvetleaf; [9]) | Velvetleaf plant response rating (velvetleaf; [10]) | Velvetleaf plant response rating (velvetleaf; [12]) | Corn plant response rating (corn; [5]) | Corn plant response rating (corn; [6]) | Plant response rating, Corn (corn; [7]) | Plant response rating, Corn (corn; [8]) | Corn plant response rating (corn; [9]) | Corn plant response rating (corn; [10]) | Corn plant response rating (corn; [11]) | Corn plant response rating (corn; [12]) | Wild oats plant response rating (wild oat; [5]) | Wild oats plant response rating (wild oat; [6]) | Plant response rating, Wild oats (wild oat; [7]) | Plant response rating, Wild oats (wild oat; [8]) | Wild oats plant response rating (wild oat; [9]) | Wild oats plant response rating (wild oat; [12]) | Plant response rating, Soybean (soybean; [7]) | Plant response rating, Soybean (soybean; [8]) | Soybean plant response rating (soybean; [9]) | Soybean plant response rating (soybean; [10]) | Rice plant response rating (rice; [4]) | Crabgrass plant response rating (crabgrass; [5]) | Crabgrass plant response rating (crabgrass; [11]) | Crabgrass plant response rating (crabgrass; [12])
2: Blackgrass plant response rating (blackgrass; [10]) | Barnyardgrass plant response rating (bamyardgrass; [1]) | Morningglory plant response rating (morningglory; [5]) | Velvetleaf plant response rating (velvetleaf; [5]) | Wild oats plant response rating (wild oat; [10]) | Soybean plant response rating (soybean; [5]) | Rice plant response rating (rice; [1]) | Rice plant response rating (rice; [2]) | Plant response rating, Crabgrass (crabgrass; [7])
7: Plant response rating, Giant foxtail (giant foxtail; [8]) | Velvetleaf plant response rating (velvetleaf; [6]) | Plant response rating, Crabgrass (crabgrass; [8])
5: Ducksalad plant response rating (duck salad; [2]) | Barnyardgrass plant response rating (bamyardgrass; [2])
8: Giant foxtail plant response rating (giant foxtail; [9])
1: Cocklebur plant response rating (cocklebur; [6]) | Morningglory plant response rating (morningglory; [12]) | Soybean plant response rating (soybean; [12])
